Active and inactive are the calls of the source. The rule behind the calls is not given here.

In data set [1] the test system is BMMC. Nature of the data set: Inhibition of osteoclastogenesis in mouse BMMC at 0.5 uM by TRAP staining based assay. Format: functional.
The test system of data set [2] is BMMC. Nature of the data set: Inhibition of osteoclastogenesis in mouse BMMC at 1 uM by TRAP staining based assay. It counts as functional.
Data set [3] has as its system BMMC. Nature of the data set: Inhibition of osteoclastogenesis in mouse BMMC at 2 uM by TRAP staining based assay. Format: functional.
Data set [4] deals with BMMC. Nature of the data set: Inhibition of osteoclastogenesis in mouse BMMC by TRAP staining based assay. It counts as functional, cell-based.
Data set [5] is described as follows: Partition coefficient, logP of compound. Format: physicochemical. Particulars: octanol/water.
For a further data set, the system named is Calvarial osteoblast. The data set is described as follows: Effect on cell viability in osteoblast cells (unknown origin) upto 4 uM incubated for 48 hrs by MTT assay. It counts as toxicity, cell-based. For orientation: Tetrazolium dyes change colour on reduction, which living cells bring about.
Data set [6] has as its system BMMC. Nature of the data set: Inhibition of RANKL mediated […] differentiation in mouse BMMC at 0.25 to 2 uM incubated for 4 days by TRAP staining based assay. The note with it: dose 0.25-2 µM, time 4.0 day. It counts as functional, cell-based.
Data set [7] deals with BMMC. The data set is described as follows: Inhibition of RANKL mediated […] differentiation in mouse BMMC incubated for 4 days by TRAP staining based assay. Format: functional, cell-based. The note with it: dose 0.25-2 µM, time 4.0 day.
Data set [8] deals with BMMC. Nature of the data set: Inhibition of osteoclastogenesis in mouse BMMC assessed as reduction in fusion of mononuclear osteoclast cells to form large multinucleated osteoclast cells at 0.25 to 2 uM. Format: functional, cell-based. Particulars: dose 0.25-2 µM.
A short description of data set [9]: Effect on mouse BMMCs viability at below 10 uM incubated for 48 hrs by MTT assay. The note with it: bmmc. It counts as toxicity, cell-based.
Data set [10] concerns BMMC. The data set is described as follows: Inhibition RANKL-induced F-actin ring formation in mouse BMMC at 0.625 to 2.5 uM incubated for 4 days by immunofluorescence assay. Format: functional, cell-based. Particulars: dose 0.625-2.5 µM, time 4.0 day.
Data set [11] has as its system BMMC. The data set is described as follows: Inhibition RANKL-induced bone resorption in mouse BMMC at 0.625 to 2.5 uM incubated for 4 days by immunofluorescence assay. The note with it: dose 0.625-2.5 µM, time 4.0 day. Format: functional, cell-based.
The test system of data set [12] is BMMC. The data set is described as follows: Inhibition of osteoclast differentiation in mouse BMMCs assessed as reduction in ACP5 mRNA expression at 1.25 uM incubated for 3 days by qRT-PCR analysis. Particulars: time 3.0 day. It counts as functional, cell-based. A general note: Real-time PCR tracks product formation cycle by cycle.
Data set [13] has as its system BMMC. The data set is described as follows: Inhibition of osteoclast differentiation in mouse BMMCs assessed as reduction in Nfatc1 mRNA expression at 1.25 uM incubated for 3 days by qRT-PCR analysis. It counts as functional, cell-based. Particulars: time 3.0 day.
Data set [14] concerns BMMC. The data set is described as follows: Inhibition of osteoclast differentiation in mouse BMMCs assessed as reduction in Cathepsin K mRNA expression at 1.25 uM incubated for 3 days by qRT-PCR analysis. It counts as functional, cell-based. Particulars: time 3.0 day.
Data set [15] has as its system BMMC. Nature of the data set: Inhibition of osteoclast differentiation in mouse BMMCs assessed as reduction in Mmp9 mRNA expression at 1.25 uM incubated for 3 days by qRT-PCR analysis. The note with it: time 3.0 day. Format: functional, cell-based.
Data set [16] has as its system BMMC. Nature of the data set: Inhibition of osteoclast differentiation in mouse BMMCs assessed as reduction in Dc-stamp mRNA expression at 1.25 uM incubated for 3 days by qRT-PCR analysis. Format: functional, cell-based. Particulars: time 3.0 day.
Data set [17] concerns BMMC. The data set is described as follows: Inhibition of osteoclast differentiation in mouse BMMCs assessed as reduction in […] mRNA expression at 1.25 uM incubated for 3 days by qRT-PCR analysis. The note with it: time 3.0 day. Format: functional, cell-based.
In data set [18] the test system is BMMC. The data set is described as follows: Inhibition of osteoclast differentiation in mouse BMMCs assessed as reduction in NFATc1 protein expression at 1.25 uM incubated for 3 days by immunoblotting analysis. Format: functional, cell-based. Particulars: time 3.0 day.
Data set [19] has as its system BMMC. The data set is described as follows: Inhibition of osteoclast differentiation in mouse BMMCs assessed as reduction in c-fos protein expression at 1.25 uM incubated for 3 days by immunoblotting analysis. The note with it: time 3.0 day. It counts as functional, cell-based.
Data set [20] deals with BMMC. The data set is described as follows: Inhibition of osteoclast differentiation in mouse BMMCs assessed as reduction in Cathepsin K protein expression at 1.25 uM incubated for 3 days by immunoblotting analysis. Format: functional, cell-based. Particulars: time 3.0 day.
For another data set, the system named is Mus musculus. The data set is described as follows: Inhibition of osteoclast differentiation in ovariectomized osteoporosis mouse model at 10 mg/kg, ip administered for 4 weeks. It counts as functional, organism-based.

The inhibition is the drop in the measured response relative to a control, in per cent. One may read the IC50 as the point on the concentration scale where inhibition reaches its midpoint. Read a low IC50 as inhibition by little substance. What is called logP is the decadic logarithm of the partition coefficient of the neutral form, usually between octanol and water. On to `CC(=O)c1ccc(S(=O)(=O)N2CCN(Cc3ccc(C(=O)NC4CC4)cc3)CC2)cc1`, for which the inhibition at 0.5 µM in the data set on BMMC [1] turned out to be 17.6%. Moreover, the inhibition at 1 µM in the data set on BMMC [2] came to 16.9%. Besides, the inhibition at 2 µM in the data set with BMMC [3] is 14.7%. The IC50 in the data set with BMMC [4] is 7.24 µM. The molecule further returned a logP in data set [5] of 2.3.

Regarding `O=C(NC1CC1)c1ccc(CN2CCN(S(=O)(=O)c3cccc(Cl)c3)CC2)cc1`, the inhibition at 0.5 µM in the data set with BMMC [1] is -49.2%. Moreover, the inhibition at 1 µM in the data set on BMMC [2] was 25.2%. Moreover, in the data set on BMMC [3], the inhibition at 2 µM came out at 71.7%. Also, in the data set on BMMC [4], the IC50 is 3.03 µM. The logP in data set [5] was found to be 3.3.

As for `COc1cccc(S(=O)(=O)N2CCN(Cc3ccc(C(=O)NC4CC4)cc3)CC2)c1`, the inhibition at 0.5 µM with BMMC [1] is -22.8%. For the same molecule, in the data set on BMMC [2], the inhibition at 1 µM is -20.9%. In the data set with BMMC [3], the inhibition at 2 µM was -5.21%. The same molecule came in with a logP in data set [5] of 2.7.

In the case of `CC(C)(C)c1ccc(S(=O)(=O)N2CCN(Cc3ccc(C(=O)NC4CC4)cc3)CC2)cc1`, the inhibition at 0.5 µM in the data set with BMMC [1] turned out to be 23.6%. Further, the inhibition at 1 µM with BMMC [2] worked out at 74.1%. Further, the inhibition at 2 µM with BMMC [3] turned out to be 100%. In addition, the 50% inhibitory concentration (IC50) with BMMC [4] is 0.55 µM. Besides, the log partition coefficient (logP) in data set [5] was 4.1.

Turning to `O=C(NC1CC1)c1ccc(CN2CCN(S(=O)(=O)c3ccc(C(F)(F)F)cc3)CC2)cc1`, the inhibition at 0.5 µM in the data set on BMMC [1] turned out to be 17.7%. Besides, the inhibition at 1 µM in the data set with BMMC [2] is 72%. The inhibition at 2 µM with BMMC [3] came out at 96.8%. In addition, it took 0.64 µM to reach half-maximal inhibition with BMMC [4] (IC50). This molecule came in with a log partition coefficient (logP) in data set [5] of 3.5. Also, the Activity result (with Calvarial osteoblast; in data set [9]) was “Non-Toxic” throughout. Moreover, the inhibition entry in the data set on BMMC [6], with BMMC [8], in the data set with BMMC [10], with BMMC [11], in the data set with BMMC [12] and with BMMC [13] was “Active” throughout. The inhibition result in the data set on BMMC [14], in the data set on BMMC [15], in the data set on BMMC [16], in the data set on BMMC [17], in the data set on BMMC [18] and in the data set with BMMC [19] was “Active” in each case. The inhibition entry in the data set with BMMC [20] is “Active”. Besides, in the data set on BMMC [7], the inhibition result was “Dose-Dependent Effect”. Further, in the data set on Mus musculus, the inhibition result was “inactive”.

On to `O=C(NC1CC1)c1ccc(CN2CCN(S(=O)(=O)c3ccc(-c4ccccc4)cc3)CC2)cc1`, for which, in the data set on BMMC [1], the inhibition at 0.5 µM was found to be 9.56%. Also, the inhibition at 1 µM with BMMC [2] is 64.6%. In addition, in the data set with BMMC [3], the inhibition at 2 µM was found to be 100%. Further, in the data set on BMMC [4], 0.75 µM corresponded to half-maximal inhibition (IC50). Also, the lipophilicity (logP) in data set [5] came to 4.1.

Turning to `COc1ccc(S(=O)(=O)N2CCN(Cc3ccc(C(=O)NC4CC4)cc3)CC2)cc1`, in the data set with BMMC [1], the inhibition at 0.5 µM was -9.9%. Besides, the inhibition at 1 µM in the data set with BMMC [2] was -13.8%. The inhibition at 2 µM with BMMC [3] is 10.6%. In addition, 221 µM corresponded to half-maximal inhibition in the data set with BMMC [4] (IC50). In data set [5], this molecule came in with a logP of 2.6.

For `CCCCCCCCS(=O)(=O)N1CCN(Cc2ccc(C(=O)NC3CC3)cc2)CC1`, in the data set with BMMC [1], the inhibition at 0.5 µM was determined as 23.9%. Besides, the inhibition at 1 µM in the data set with BMMC [2] came to 33.2%. Also, the inhibition at 2 µM in the data set on BMMC [3] was 84%. In the data set with BMMC [4], the IC50 is 1.14 µM. In data set [5], this molecule yielded a log partition coefficient (logP) of 5.7.

With `O=C(NC1CC1)c1ccc(CN2CCN(S(=O)(=O)c3ccc([N+](=O)[O-])cc3)CC2)cc1`, the inhibition at 0.5 µM with BMMC [1] stood at 48.9%. In addition, the inhibition at 1 µM in the data set on BMMC [2] worked out at 25.5%. For the same molecule, the inhibition at 2 µM in the data set on BMMC [3] stood at 46.7%. The IC50 in the data set on BMMC [4] stood at 1.69 µM. Further, the logP in data set [5] turned out to be 2.6.

(Values after ChEMBL document CHEMBL5584263, “Novel inhibitor N-cyclopropyl-4-((4-((4-(trifluoromethyl)phenyl)sulfonyl)piperazin-1-yl)methyl)benzamide attenuates RANKL-mediated osteoclast differentiation in vitro” (Bioorg Med Chem Lett, 2024).)
